We go through 32 compounds from patent US8569281B2, “Compounds and their administration for treating a neurodegenerative disease as well as a method for identifying a compound capable of inhibiting a kinase, such as LRRK” (Medical Research Council Technology, priority 2010, dated 2013).

Sequence of LRRK2 (Q5S007 whole entry G2019S): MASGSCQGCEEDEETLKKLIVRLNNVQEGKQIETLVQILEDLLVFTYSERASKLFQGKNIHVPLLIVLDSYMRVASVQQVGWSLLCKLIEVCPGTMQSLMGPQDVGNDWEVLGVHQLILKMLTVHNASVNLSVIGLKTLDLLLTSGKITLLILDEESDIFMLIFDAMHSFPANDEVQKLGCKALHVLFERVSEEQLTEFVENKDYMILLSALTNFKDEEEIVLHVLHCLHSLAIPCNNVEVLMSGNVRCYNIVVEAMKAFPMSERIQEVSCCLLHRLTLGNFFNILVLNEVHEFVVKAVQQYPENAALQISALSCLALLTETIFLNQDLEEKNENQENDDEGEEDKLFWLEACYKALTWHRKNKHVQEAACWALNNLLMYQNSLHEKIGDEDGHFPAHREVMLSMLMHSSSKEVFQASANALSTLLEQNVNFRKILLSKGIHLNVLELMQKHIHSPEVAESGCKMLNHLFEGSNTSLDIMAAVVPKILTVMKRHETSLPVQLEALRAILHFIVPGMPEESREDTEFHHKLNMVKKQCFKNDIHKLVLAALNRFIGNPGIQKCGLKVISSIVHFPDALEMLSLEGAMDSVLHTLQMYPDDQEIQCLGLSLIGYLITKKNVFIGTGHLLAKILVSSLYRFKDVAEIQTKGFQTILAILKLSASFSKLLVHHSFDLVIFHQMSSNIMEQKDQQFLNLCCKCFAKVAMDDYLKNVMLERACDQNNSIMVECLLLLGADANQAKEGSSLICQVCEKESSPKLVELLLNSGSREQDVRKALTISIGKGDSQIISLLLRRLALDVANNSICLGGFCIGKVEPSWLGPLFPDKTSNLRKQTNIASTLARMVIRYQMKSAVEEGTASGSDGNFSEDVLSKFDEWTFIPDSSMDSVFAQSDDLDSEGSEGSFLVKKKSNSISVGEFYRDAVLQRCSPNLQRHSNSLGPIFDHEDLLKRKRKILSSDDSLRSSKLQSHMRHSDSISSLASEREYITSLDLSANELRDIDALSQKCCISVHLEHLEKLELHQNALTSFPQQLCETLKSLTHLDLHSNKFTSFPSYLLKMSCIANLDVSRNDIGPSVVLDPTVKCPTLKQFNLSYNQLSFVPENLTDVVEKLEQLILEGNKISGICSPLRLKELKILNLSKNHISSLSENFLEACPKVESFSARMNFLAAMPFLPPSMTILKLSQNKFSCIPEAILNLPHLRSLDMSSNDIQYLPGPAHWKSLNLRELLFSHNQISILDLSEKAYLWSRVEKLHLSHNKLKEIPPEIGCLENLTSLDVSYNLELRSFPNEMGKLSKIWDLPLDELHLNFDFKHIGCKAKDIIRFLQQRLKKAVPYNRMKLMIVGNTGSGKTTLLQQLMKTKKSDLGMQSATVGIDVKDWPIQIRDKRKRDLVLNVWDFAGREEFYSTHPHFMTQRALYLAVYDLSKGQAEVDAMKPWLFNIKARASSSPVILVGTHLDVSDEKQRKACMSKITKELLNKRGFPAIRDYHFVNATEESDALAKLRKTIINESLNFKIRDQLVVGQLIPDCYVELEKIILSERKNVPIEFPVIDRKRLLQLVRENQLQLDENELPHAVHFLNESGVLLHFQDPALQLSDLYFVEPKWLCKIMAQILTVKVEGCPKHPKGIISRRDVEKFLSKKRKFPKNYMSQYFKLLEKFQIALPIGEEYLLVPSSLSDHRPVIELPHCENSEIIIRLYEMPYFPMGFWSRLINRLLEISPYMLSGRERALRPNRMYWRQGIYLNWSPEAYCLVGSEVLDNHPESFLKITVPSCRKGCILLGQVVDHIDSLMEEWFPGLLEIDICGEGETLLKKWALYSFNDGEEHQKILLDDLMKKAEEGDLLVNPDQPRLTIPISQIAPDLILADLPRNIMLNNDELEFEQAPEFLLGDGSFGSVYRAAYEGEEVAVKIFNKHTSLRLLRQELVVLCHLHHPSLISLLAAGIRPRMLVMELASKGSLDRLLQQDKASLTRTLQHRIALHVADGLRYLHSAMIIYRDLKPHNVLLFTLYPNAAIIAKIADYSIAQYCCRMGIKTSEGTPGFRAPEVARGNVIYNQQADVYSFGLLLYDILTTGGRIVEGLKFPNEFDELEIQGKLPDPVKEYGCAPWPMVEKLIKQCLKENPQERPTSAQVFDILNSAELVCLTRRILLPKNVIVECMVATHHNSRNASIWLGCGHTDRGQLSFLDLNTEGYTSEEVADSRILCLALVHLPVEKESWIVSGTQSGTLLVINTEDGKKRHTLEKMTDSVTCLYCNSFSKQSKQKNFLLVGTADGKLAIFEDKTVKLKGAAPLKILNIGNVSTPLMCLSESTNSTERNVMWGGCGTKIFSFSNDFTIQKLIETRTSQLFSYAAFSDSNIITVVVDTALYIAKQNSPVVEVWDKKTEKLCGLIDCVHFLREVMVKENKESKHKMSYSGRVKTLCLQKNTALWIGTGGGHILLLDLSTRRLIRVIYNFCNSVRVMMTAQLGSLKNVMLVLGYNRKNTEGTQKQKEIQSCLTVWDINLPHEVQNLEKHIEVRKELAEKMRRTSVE

The assay has as its target LRRK2 (Homo sapiens (Human), UniProt Q5S007). The assay can be described thus: In Vitro LRRK2 Assay (LabChip 3000, fluorescently-labeled peptide substrate). Type of assay: biochemical. The note with it: ATP 130 μM, substrate 1 μM, 2 hours, ambient temperature; LRRK2 variant not given; read-out: Ki (μM), affinity values for LRRK2. The procedure:
This assay was used to determine a compound's potency in inhibiting activity of LRRK2 by determining, Kiapp, IC50, or percent inhibition values. In a polypropylene plate, LRRK2, fluorescently-labeled peptide substrate, ATP and test compound were incubated together. Using a LabChip 3000 (Caliper Life Sciences), after the reaction the substrate was separated by capillary electrophoresis into two populations: phosphorylated and unphosphorylated. The relative amounts of each were quantitated by fluorescence intensity. LRRK2 Ki was determined according to the equation: Y=V0*(1−((x+Ki*(1+S/Km)+Et)/(2*Et)−(((x+Ki*(1+S/Km)+Et)^2−(4*Et*x))^0.5)/(2*Et))).
Ki values in Table 4 and elsewhere herein are shown in μM.
Assay conditions and materials used were as follows:
Compound Plate Preparation:
For serial dilutions, 34.6 μl DMSO was added to columns 3-24.
Total and Blank Preparation:
In Complete Reaction Buffer, substrate was diluted to 4 μM. Equal volumes of Complete Reaction Buffer and 4 μM substrate were combined to obtain the blank. Equal volumes of Complete Reaction Buffer and 4 μM substrate were combined and to the combined solution was added 2× final LRRK2 concentration.
To a 50 μl polypropylene plate, 5 μl/well buffer/substrate was added by hand to Blank wells. A Biomek FX was used to start the kinase reaction (“PLK SAR 23 ATP”). The following were added to the appropriate wells: • 2 μl compound+23 μl ATP; • 5 μl/well compound/ATP in Assay Plate; • 5 μl/well kinase/substrate in Assay Plate;
The plate was incubated for 2 hours in the dark. Biomek FX was used to stop the kinase reaction (“PLK Stop”), and 10 μl/well Stop solution was added to the Assay Plate. Results were read on the LabChip 3000.
The LabChip 3000 was run using the job “LRRK2 IC50” with the following job settings: • Pressure: −1.4 psi • Downstream voltage: −500 V • Upstream voltage: −2350 V • Post sample buffer sip time: 75 seconds • Post dye buffer sip time: 75 seconds • Final delay time: 200 seconds Parkinson's Disease Animal Model
By Ki is commonly meant a measure of affinity in units of concentration, obtained from inhibition or displacement. For `Cc1cc(-c2n[nH]c3ccnc(OC4CCOCC4)c23)cc(C)n1` [Example 100, 3-(2,6-Dimethylpyridin-4-yl)-4-(tetrahydro-2H-pyran-4-yloxy)-1H-pyrazolo[4,3-c]pyridine], the Ki worked out at 0.005 µM.
In the case of `O=C(NC1CC1)c1cccc(-c2[nH]nc3ccnc(OC4CCOCC4)c23)c1` [Example 155, N-Cyclopropyl-3-(4-(tetrahydro-2H-pyran-4-yloxy)-1H-pyrazolo[4,3-c]pyridin-3-yl)benzamide] it was 0.027 µM.
In the case of `c1cc2[nH]nc(-c3ccc4ncn(C5CCOC5)c4c3)c2c(OC2CCOCC2)n1` (centres unmarked) [Example 128, 4-(Tetrahydro-2H-pyran-4-yloxy)-3-(1-(tetrahydrofuran-3-yl)-1H-benzo[d]imidazol-6-yl)-1H-pyrazolo[4,3-c]pyridine] it was 0.034 µM; in that of `CC(C)n1cc(-c2n[nH]c3ccnc(OC4CCOC4)c23)cn1` (centres unmarked) [Example 224, 3-(1-Isopropyl-1H-pyrazol-4-yl)-4-(tetrahydro-furan-3-yloxy)-1H-pyrazolo[4,3-c]pyridine], 0.007 µM.
In the case of `CC(C)n1cc(-c2n[nH]c3ccnc(OC4CCOCC4)c23)cc1C(=O)N1CCOCC1` [Example 65, (1-isopropyl-4-(4-(tetrahydro-2H-pyran-4-yloxy)-1H-pyrazolo[4,3-c]pyridin-3-yl)-1H-pyrrol-2-yl)(morpholino)methanone] it was 0.039 µM; in that of `CNC(=O)c1cccc(-c2[nH]nc3cc(C)nc(OC4CCOCC4)c23)c1` [Example 171, N-methyl-3-(6-methyl-4-(tetrahydro-2H-pyran-4-yloxy)-1H-pyrazolo[4,3-c]pyridin-3-yl)benzamide], 0.154 µM; in that of `Cn1cnc2cc(-c3n[nH]c4ccnc(OC5CCOCC5)c34)ccc21` [Example 145, 3-(1-methyl-1H-benzo[d]imidazol-5-yl)-4-(tetrahydro-2H-pyran-4-yloxy)-1H-pyrazolo[4,3-c]pyridine], 0.036 µM.
In the case of `COc1nccc2[nH]nc(-c3ccnc(N4CCOCC4)c3)c12` [Example 107, 4-(4-(4-Methoxy-1H-pyrazolo[4,3-c]pyridin-3-yl)pyridin-2-yl)morpholine], the Ki was found to be 0.029 µM.
With `CC(C)n1cc(-c2n[nH]c3ccnc(OC4CCOCC4)c23)cc1C(=O)N(C)C` [Example 66, 1-isopropyl-N,N-dimethyl-4-(4-(tetrahydro-2H-pyran-4-yloxy)-1H-pyrazolo[4,3-c]pyridin-3-yl)-1H-pyrrole-2-carboxamide] the figure was 0.045 µM; with `c1ncc(-c2cc(-c3n[nH]c4ccnc(OC5CCOCC5)c34)ccn2)cn1` [Example 199, 3-(2-(pyrimidin-5-yl)pyridin-4-yl)-4-(tetrahydro-2H-pyran-4-yloxy)-1H-pyrazolo[4,3-c]pyridine], 0.046 µM; with `c1cc2[nH]nc(-c3cnn(C4CCCC4)c3)c2c(OC2CCOCC2)n1` [Example 39, 3-(1-Cyclopentyl-1H-pyrazol-4-yl)-4-(tetrahydro-2H-pyran-4-yloxy)-1H-pyrazolo[4,3-c]pyridine], 0.006 µM.
On to `CCn1cc(-c2cc(-c3n[nH]c4ccnc(OC5CCOCC5)c34)ccn2)cn1` [Example 213, 3-(2-(1-ethyl-1H-pyrazol-4-yl)pyridin-4-yl)-4-(tetrahydro-2H-pyran-4-yloxy)-1H-pyrazolo[4,3-c]pyridine], for which the Ki came out at 0.012 µM.
Take `CC(C)Oc1nccc2[nH]nc(-c3cc(C(=O)N4CCOCC4)n(C(C)C)c3)c12` [Example 57, (4-(4-Isopropoxy-1H-pyrazolo[4,3-c]pyridin-3-yl)-1-isopropyl-1H-pyrrol-2-yl)(morpholino)methanone]: the Ki is 0.019 µM.
`c1cc(-c2n[nH]c3ccnc(OC4CCOCC4)c23)cc(N2CCCC2)n1` [Example 110, 3-(2-(Pyrrolidin-1-yl)pyridin-4-yl)-4-(tetrahydro-2H-pyran-4-yloxy)-1H-pyrazolo[4,3-c]pyridine]: the inhibitory constant (Ki) turned out to be 0.003 µM.
Consider `CC(C)NC(=O)c1cccc(-c2[nH]nc3ccnc(OC4CCOCC4)c23)c1` [Example 154, N-Isopropyl-3-(4-(tetrahydro-2H-pyran-4-yloxy)-1H-pyrazolo[4,3-c]pyridin-3-yl)benzamide], for which the Ki worked out at 0.0784 µM.
With `CN1CCc2c(-c3n[nH]c4ccnc(OC5CCOCC5)c34)cccc21` [Example 157, 3-(1-Methylindolin-4-yl)-4-(tetrahydro-2H-pyran-4-yloxy)-1H-pyrazolo[4,3-c]pyridine] the figure was 0.495 µM; with `c1cc(-c2n[nH]c3ccnc(OC4CCOC4)c23)cc(N2CCOCC2)n1` (centres unmarked) [Example 190, 4-(4-(4-(tetrahydrofuran-3-yloxy)-1H-pyrazolo[4,3-c]pyridin-3-yl)pyridin-2-yl)morpholine], 0.013 µM; with `c1cc2[nH]nc(-c3ccc4cn[nH]c4c3)c2c(OC2CCOCC2)n1` [Example 138, 3-(1H-Indazol-6-yl)-4-(tetrahydro-2H-pyran-4-yloxy)-1H-pyrazolo[4,3-c]pyridine], 0.013 µM.
With `CC(C)n1cc2ccc(-c3n[nH]c4ccnc(OC5CCOCC5)c34)cc2n1` [Example 143, 3-(2-isopropyl-2H-indazol-6-yl)-4-(tetrahydro-2H-pyran-4-yloxy)-1H-pyrazolo[4,3-c]pyridine] the figure was 0.032 µM; with `c1coc(-c2n[nH]c3ccnc(OC4CCOCC4)c23)c1` [Example 37, 3-(Furan-2-yl)-4-(tetrahydro-2H-pyran-4-yloxy)-1H-pyrazolo[4,3-c]pyridine], 0.132 µM.
In the case of `Cn1cc(/C=C/c2n[nH]c3ccnc(OC4CCCCC4)c23)cn1` [Example 52, 4-(Cyclohexyloxy)-3-[(E)-2-(1-methyl-1H-pyrazol-4-yl)ethenyl]-1H-pyrazolo[4,3-c]pyridine] it was 0.0003 µM; in that of `O=C(c1ccc(CCc2n[nH]c3ccnc(NC4CCCCC4)c23)cc1)N1CCN(C2CC2)CC1` [Example 8, (4-{2-[4-(Cyclohexylamino)-1H-pyrazolo[4,3-c]pyridin-3-yl]ethyl}phenyl)(4-cyclopropylpiperazin-1-yl)methanone], 0.017 µM.
As for `N#Cc1cccc(-c2cc(-c3n[nH]c4ccnc(OC5CCOCC5)c34)ccn2)c1` [Example 201, 3-(4-(4-(tetrahydro-2H-pyran-4-yloxy)-1H-pyrazolo[4,3-c]pyridin-3-yl)pyridin-2-yl) benzonitrile], the Ki worked out at 0.009 µM.
As to `COc1nccc2[nH]nc(-c3cc(C(=O)NC4COC4)n(C(C)C)c3)c12` [Example 64, 1-isopropyl-4-(4-methoxy-1H-pyrazolo[4,3-c]pyridin-3-yl)-N-(oxetan-3-yl)-1H-pyrrole-2-carboxamide], the Ki was 0.014 µM.
In the case of `Cc1cc2[nH]nc(-c3ccnc(N4CCOCC4)c3)c2c(OC2CCOCC2)n1` [Example 172, 4-(4-(6-methyl-4-(tetrahydro-2H-pyran-4-yloxy)-1H-pyrazolo[4,3-c]pyridin-3-yl)pyridin-2-yl)morpholine], the inhibitory constant (Ki) was determined as 0.035 µM.
In the case of `CC(C)c1nc(-c2n[nH]c3ccnc(NC4CCOCC4)c23)n[nH]1` [Example 168, 3-(5-Isopropyl-4H-1,2,4-triazol-3-yl)-N-(tetrahydro-2H-pyran-4-yl)-1H-pyrazolo[4,3-c]pyridin-4-amine] it was 0.007 µM.
In the case of `CC(C)Oc1nccc2[nH]nc(-c3cc(C(=O)N(C)C)n(C(C)C)c3)c12` [Example 54, 4-(4-isopropoxy-1H-pyrazolo[4,3-c]pyridine-3-yl)-1-isopropyl-N,N-dimethyl-1H-pyrrole-2-carboxamide] it was 0.018 µM; in that of `c1cc(-c2n[nH]c3ccnc(OC4CCOCC4)c23)c2cc[nH]c2c1` [Example 158, 3-(1H-Indol-4-yl)-4-(tetrahydro-2H-pyran-4-yloxy)-1H-pyrazolo[4,3-c]pyridine], 0.448 µM.
In the case of `COc1nccc2[nH]nc(-c3cnn(CC(F)(F)F)c3)c12` [Example 88, 4-Methoxy-3-(1-(2,2,2-trifluoroethyl)-1H-pyrazol-4-yl)-1H-pyrazolo[4,3-u]pyridine] it was 0.025 µM.
On to `c1cc(-c2cc(-c3n[nH]c4ccnc(OC5CCOCC5)c34)ccn2)ccn1` [Example 198, 3-(2,4′-bipyridin-4-yl)-4-(tetrahydro-2H-pyran-4-yloxy)-1H-pyrazolo[4,3-c]pyridine], for which the inhibitory constant (Ki) is 0.026 µM.
In the case of `c1cc2[nH]nc(-c3ccc4c(c3)ncn4C3CCOC3)c2c(OC2CCOCC2)n1` (centres unmarked) [Example 129, 4-(tetrahydro-2H-pyran-4-yloxy)-3-(1-(tetrahydrofuran-3-yl)-1H-benzo[d]imidazol-5-yl)-1H-pyrazolo[4,3-c]pyridine] it was 0.01 µM; in that of `COc1nccc2[nH]nc(-c3cc(C(=O)N(C)C)n(C(C)C)c3)c12` [Example 61, 1-Isopropyl-4-(4-methoxy-1H-pyrazolo[4,3-c]pyridin-3-yl)-N,N-dimethyl-1H-pyrrole-2-carboxamide], 0.077 µM.
